We go through 8 compounds from PubChem BioAssay (NCI).

Molecules are shown by their SMILES.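 The compound was tested at five concentrations on cells cultured in 96-well plates, with a 48-hour exposure period. GI50 = concentration required for 50% inhibition of growth. TGI is the concentration that stops growth completely.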

Test systems include HCC-2998 colon; MOLT-4 leukemia; SK-MEL-2 melanoma; HT29 colon; COLO 205 colon; 786-0 renal; PC-3 prostate; HL-60(TB) leukemia; CAKI-1 renal; U251 CNS.
What all share (test): NCI-60 cell line screen, 48 h

Take `Clc1ccc(-c2cn(-c3ccccc3)c(-c3ccccc3)n2)c(Cl)c1`: the TGI is over 25.5 µM with HCC-2998 colon; over 50 µM in the assay with MOLT-4 leukemia; over 50 µM in the assay with SK-MEL-2 melanoma; over 50 µM with HT29 colon; 3.03 µM in the assay on COLO 205 colon; 2.56 µM in the assay on 786-0 renal. The TGI was over 50 µM in the assay on PC-3 prostate, over 50 µM in the assay on HL-60(TB) leukemia, 4.4 µM in the assay with CAKI-1 renal and 3.83 µM in the assay with U251 CNS. Besides, the GI50 was over 20.5 µM in the assay with MOLT-4 leukemia; over 50 µM in the assay on SK-MEL-2 melanoma; 1.79 µM in the assay on HT29 colon; 1.14 µM in the assay with COLO 205 colon; 1.14 µM in the assay with 786-0 renal; 5.43 µM in the assay with PC-3 prostate. For the same compound, the GI50 was 9.74 µM in the assay on HL-60(TB) leukemia, 1.2 µM in the assay on CAKI-1 renal and 1.25 µM in the assay on U251 CNS.
For the compound `COc1ccc(Nc2c[nH]c(=O)[nH]c2=O)cc1`, the TGI in the assay on HCC-2998 colon, in the assay with MOLT-4 leukemia, in the assay on SK-MEL-2 melanoma, in the assay with HT29 colon, in the assay with COLO 205 colon and with 786-0 renal was over 100 µM throughout. The TGI with PC-3 prostate, with HL-60(TB) leukemia, in the assay on CAKI-1 renal and in the assay on U251 CNS was over 100 µM each time.
In the case of `CCOC(=O)c1cnc2c(cnn2CC)c1NN=C(C)C`, the GI50 was over 100 µM in the assay with HCC-2998 colon; 64.7 µM in the assay on MOLT-4 leukemia; 53.5 µM in the assay with SK-MEL-2 melanoma; 23.3 µM in the assay with HT29 colon; 58.7 µM in the assay on COLO 205 colon; 29.6 µM in the assay on 786-0 renal. Moreover, the GI50 in the assay with PC-3 prostate was 37.5 µM; with HL-60(TB) leukemia it was 59 µM; with CAKI-1 renal it was 22.9 µM; with U251 CNS it was 35.6 µM. The TGI in the assay on HCC-2998 colon, with MOLT-4 leukemia, in the assay with SK-MEL-2 melanoma, with HT29 colon, in the assay with COLO 205 colon and in the assay on 786-0 renal was over 100 µM each time. Besides, the TGI in the assay with PC-3 prostate, in the assay on HL-60(TB) leukemia, with CAKI-1 renal and in the assay on U251 CNS was over 100 µM each time.
Take `N#CC(=S)Nc1ccc(F)cc1`: the TGI with HCC-2998 colon, in the assay with MOLT-4 leukemia, in the assay on SK-MEL-2 melanoma, in the assay on HT29 colon, in the assay on COLO 205 colon and in the assay with 786-0 renal was over 100 µM in each case. The TGI is over 100 µM in the assay with PC-3 prostate, 91.3 µM in the assay on HL-60(TB) leukemia, over 100 µM with CAKI-1 renal and over 100 µM in the assay on U251 CNS.
Regarding `Oc1ccc(-c2nc3ccc4[nH]ncc4c3c3c2CCCC3)c2cccnc12`, the GI50 in the assay on HCC-2998 colon is 0.319 µM; in the assay on MOLT-4 leukemia it was 0.393 µM; in the assay on SK-MEL-2 melanoma, 0.452 µM; in the assay with HT29 colon, 1.09 µM; with COLO 205 colon it was 0.89 µM; in the assay with 786-0 renal, 0.435 µM. Further, the GI50 in the assay on PC-3 prostate was 0.389 µM; with HL-60(TB) leukemia it was 0.639 µM; in the assay with CAKI-1 renal, 0.12 µM; with U251 CNS it was 0.143 µM. The TGI in the assay on HCC-2998 colon is 5.45 µM; in the assay on MOLT-4 leukemia, 12.8 µM; in the assay with SK-MEL-2 melanoma it was 3.5 µM; with HT29 colon, 6.73 µM; with COLO 205 colon, 2.42 µM; in the assay on 786-0 renal, 3.95 µM. Moreover, the TGI with PC-3 prostate came out at 6.56 µM; with HL-60(TB) leukemia, 3.14 µM; with CAKI-1 renal, 0.886 µM; in the assay with U251 CNS it was 5.97 µM.
For the compound `CC(C)(C)c1nnc2n(c1=O)N=CC(c1ccc(Br)cc1)S2` (centres undefined), the GI50 in the assay with HCC-2998 colon was 26.3 µM; in the assay on MOLT-4 leukemia, 31.5 µM; with SK-MEL-2 melanoma it was 25.3 µM; with HT29 colon, 43.8 µM; in the assay with COLO 205 colon, 39.2 µM; in the assay on 786-0 renal, 32.3 µM. The GI50 is 42.1 µM in the assay with PC-3 prostate, 39 µM in the assay with HL-60(TB) leukemia, 24.7 µM in the assay on CAKI-1 renal and 26 µM with U251 CNS. For the same compound, the TGI is 56.7 µM with HCC-2998 colon; over 100 µM with MOLT-4 leukemia; 66.1 µM in the assay with SK-MEL-2 melanoma; over 100 µM in the assay with HT29 colon; over 100 µM in the assay with COLO 205 colon; over 100 µM in the assay on 786-0 renal. Further, the TGI was over 100 µM in the assay with PC-3 prostate, over 100 µM in the assay on HL-60(TB) leukemia, 62.5 µM in the assay with CAKI-1 renal and 66.9 µM in the assay on U251 CNS.
On to `COc1cc2c3c(n(C)c(=O)c2cc1OC)-c1cc2c(cc1/C3=C\[C@@H](N)CCCCN)OCO2`, for which the GI50 is 2.99 µM in the assay on HCC-2998 colon; 0.389 µM in the assay with MOLT-4 leukemia; 13.2 µM in the assay on SK-MEL-2 melanoma; 0.337 µM in the assay with HT29 colon; 2.8 µM in the assay on COLO 205 colon; 2.06 µM in the assay on 786-0 renal. In addition, the GI50 in the assay with PC-3 prostate was 2.71 µM; in the assay on HL-60(TB) leukemia, 2.15 µM; in the assay with CAKI-1 renal it was 4.26 µM; in the assay with U251 CNS, under 0.0209 µM. For the same compound, the TGI was 45.9 µM in the assay with HCC-2998 colon; 3.45 µM in the assay with MOLT-4 leukemia; over 100 µM in the assay with SK-MEL-2 melanoma; over 100 µM with HT29 colon; over 86.3 µM in the assay on COLO 205 colon; over 100 µM in the assay with 786-0 renal. Besides, the TGI with PC-3 prostate was over 53.1 µM; in the assay with HL-60(TB) leukemia, 8.73 µM; in the assay on CAKI-1 renal it was over 75.1 µM; in the assay on U251 CNS, 7.41 µM.
On to `COC(=O)c1cc2c(cc1Cl)SC(N(N(C)C)S(=O)(=O)c1ccc(Cl)cc1)=NS2(=O)=O`, for which the GI50 is 16.1 µM with HCC-2998 colon; 11.8 µM in the assay on MOLT-4 leukemia; 20.5 µM in the assay on SK-MEL-2 melanoma; 16.1 µM in the assay with HT29 colon; 13.4 µM with COLO 205 colon; 31.3 µM in the assay with 786-0 renal. Moreover, the GI50 in the assay with PC-3 prostate is 7.63 µM; with HL-60(TB) leukemia it was 16.4 µM; in the assay with CAKI-1 renal it was 21.3 µM; in the assay on U251 CNS, 17 µM. Also, the TGI with HCC-2998 colon is 32.7 µM; in the assay on MOLT-4 leukemia, 27.5 µM; in the assay with SK-MEL-2 melanoma it was 59 µM; in the assay on HT29 colon it was 31.9 µM; in the assay on COLO 205 colon, 29.8 µM; in the assay with 786-0 renal, over 100 µM. For the same compound, the TGI in the assay with PC-3 prostate was 20.5 µM; in the assay on HL-60(TB) leukemia, 42.6 µM; in the assay on CAKI-1 renal it was 46.1 µM; with U251 CNS, 44.8 µM.
